Here are results for one molecule from ChEMBL document CHEMBL2073987, “The sulphonylurea glibenclamide inhibits multidrug resistance protein (MRP1) activity in human lung cancer cells” (Br J Pharmacol, 2001).

The target in data set [1] is Multidrug resistance-associated protein 1 (Homo sapiens, UniProt P33527). The experiment in a line: TP_TRANSPORTER: inhibition of Calcein efflux (Calcein: 0.5 micro;M, Glibenclamide: 50-100 uM, increase intercellular calcein level by ca 4 fold ) in GLC4/Sb30 cells. It is filed as functional, cell-based.
Multidrug resistance-associated protein 1, sequence (P33527 whole entry): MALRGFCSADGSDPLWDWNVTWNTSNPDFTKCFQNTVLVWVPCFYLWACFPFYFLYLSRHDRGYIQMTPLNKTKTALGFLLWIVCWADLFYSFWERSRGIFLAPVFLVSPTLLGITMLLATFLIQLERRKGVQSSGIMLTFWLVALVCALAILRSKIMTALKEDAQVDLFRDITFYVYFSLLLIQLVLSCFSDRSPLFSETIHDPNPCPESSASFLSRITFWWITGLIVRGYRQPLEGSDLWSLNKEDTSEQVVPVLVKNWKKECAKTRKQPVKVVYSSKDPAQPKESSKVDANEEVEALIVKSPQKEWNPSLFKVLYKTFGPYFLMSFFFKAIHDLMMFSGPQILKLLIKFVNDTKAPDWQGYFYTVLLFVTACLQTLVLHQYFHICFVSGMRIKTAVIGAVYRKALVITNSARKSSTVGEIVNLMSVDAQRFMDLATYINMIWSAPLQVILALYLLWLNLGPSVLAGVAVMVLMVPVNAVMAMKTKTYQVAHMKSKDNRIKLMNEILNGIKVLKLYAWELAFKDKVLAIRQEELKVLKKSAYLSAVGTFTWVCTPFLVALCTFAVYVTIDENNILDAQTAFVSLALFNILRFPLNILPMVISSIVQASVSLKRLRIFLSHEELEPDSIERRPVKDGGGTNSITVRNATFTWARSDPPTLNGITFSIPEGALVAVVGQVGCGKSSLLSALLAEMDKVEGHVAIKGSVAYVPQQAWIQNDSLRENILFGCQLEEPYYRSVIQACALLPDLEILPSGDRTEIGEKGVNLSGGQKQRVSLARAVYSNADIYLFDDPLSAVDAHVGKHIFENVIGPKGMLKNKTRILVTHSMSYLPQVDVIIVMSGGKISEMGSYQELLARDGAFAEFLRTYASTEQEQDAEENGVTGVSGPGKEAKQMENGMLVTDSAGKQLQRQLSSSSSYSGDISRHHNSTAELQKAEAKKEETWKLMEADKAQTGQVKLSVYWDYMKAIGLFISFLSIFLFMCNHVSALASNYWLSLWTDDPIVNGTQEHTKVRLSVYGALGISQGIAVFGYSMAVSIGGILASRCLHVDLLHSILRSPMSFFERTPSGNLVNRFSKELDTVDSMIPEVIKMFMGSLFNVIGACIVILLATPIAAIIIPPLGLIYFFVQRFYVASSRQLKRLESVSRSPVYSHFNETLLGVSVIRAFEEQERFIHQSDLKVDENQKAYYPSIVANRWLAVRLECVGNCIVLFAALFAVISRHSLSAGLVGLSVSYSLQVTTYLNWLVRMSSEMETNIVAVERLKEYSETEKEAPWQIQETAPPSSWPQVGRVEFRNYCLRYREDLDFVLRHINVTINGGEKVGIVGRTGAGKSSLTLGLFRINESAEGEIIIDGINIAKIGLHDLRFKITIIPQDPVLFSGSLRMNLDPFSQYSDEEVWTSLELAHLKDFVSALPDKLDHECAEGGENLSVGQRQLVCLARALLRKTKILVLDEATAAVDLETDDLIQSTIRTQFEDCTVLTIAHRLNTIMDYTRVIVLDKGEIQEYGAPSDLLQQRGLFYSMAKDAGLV
For data set [2], the target named is ATP-binding cassette sub-family C member 2 (Rattus norvegicus, UniProt Q63120). The experiment in a line: TP_TRANSPORTER: inhibition of Carboxy-2',7'-dichlorofluorescein efflux (Calcein: 0.5 micro;M, Glibenclamide, 50-100 uM, increase intercellular CF level by ~2 fold) in isolated rat hepatocytes. In kind it is functional, cell-based, Hepatocyte.
ATP-binding cassette sub-family C member 2, sequence (Q63120 whole entry): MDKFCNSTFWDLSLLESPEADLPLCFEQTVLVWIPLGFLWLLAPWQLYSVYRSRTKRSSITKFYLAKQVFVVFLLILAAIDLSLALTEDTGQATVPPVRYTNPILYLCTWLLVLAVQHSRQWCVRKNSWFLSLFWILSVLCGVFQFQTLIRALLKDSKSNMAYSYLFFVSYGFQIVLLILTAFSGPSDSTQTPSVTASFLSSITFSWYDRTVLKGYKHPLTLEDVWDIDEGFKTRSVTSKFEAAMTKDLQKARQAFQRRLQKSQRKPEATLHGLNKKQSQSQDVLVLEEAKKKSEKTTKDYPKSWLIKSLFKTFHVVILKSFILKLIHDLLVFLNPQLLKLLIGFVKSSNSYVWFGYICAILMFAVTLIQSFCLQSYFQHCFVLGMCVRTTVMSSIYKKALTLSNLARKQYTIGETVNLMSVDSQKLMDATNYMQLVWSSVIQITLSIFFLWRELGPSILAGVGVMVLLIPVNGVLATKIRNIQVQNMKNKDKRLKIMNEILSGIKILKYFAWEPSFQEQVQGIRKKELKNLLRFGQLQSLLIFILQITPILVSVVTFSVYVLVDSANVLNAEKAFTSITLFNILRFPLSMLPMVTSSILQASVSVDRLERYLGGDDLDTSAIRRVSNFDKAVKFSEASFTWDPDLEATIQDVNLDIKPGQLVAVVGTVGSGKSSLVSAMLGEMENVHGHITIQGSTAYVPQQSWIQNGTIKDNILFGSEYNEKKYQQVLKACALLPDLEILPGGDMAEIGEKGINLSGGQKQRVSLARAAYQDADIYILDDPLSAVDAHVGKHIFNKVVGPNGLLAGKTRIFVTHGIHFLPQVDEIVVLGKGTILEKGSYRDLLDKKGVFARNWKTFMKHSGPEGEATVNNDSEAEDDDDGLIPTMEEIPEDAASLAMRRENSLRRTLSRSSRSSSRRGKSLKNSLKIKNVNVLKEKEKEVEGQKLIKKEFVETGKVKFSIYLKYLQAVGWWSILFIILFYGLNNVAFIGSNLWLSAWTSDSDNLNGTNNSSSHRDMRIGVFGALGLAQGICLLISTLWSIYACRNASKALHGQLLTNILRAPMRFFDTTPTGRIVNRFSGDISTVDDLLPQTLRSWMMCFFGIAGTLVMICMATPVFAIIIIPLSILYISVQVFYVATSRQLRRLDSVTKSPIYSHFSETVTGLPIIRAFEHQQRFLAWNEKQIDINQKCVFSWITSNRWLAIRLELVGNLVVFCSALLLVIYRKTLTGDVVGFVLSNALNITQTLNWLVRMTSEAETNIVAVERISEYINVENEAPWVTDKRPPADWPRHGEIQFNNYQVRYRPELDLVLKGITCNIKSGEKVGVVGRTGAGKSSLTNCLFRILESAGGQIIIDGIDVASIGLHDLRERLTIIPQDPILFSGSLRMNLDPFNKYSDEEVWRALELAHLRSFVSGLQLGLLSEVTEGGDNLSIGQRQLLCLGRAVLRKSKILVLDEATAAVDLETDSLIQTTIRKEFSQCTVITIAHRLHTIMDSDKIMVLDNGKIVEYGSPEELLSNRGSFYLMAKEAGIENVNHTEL

For `COc1ccc(Cl)cc1C(=O)NCCc1ccc(S(=O)(=O)NC(=O)NC2CCCCC2)cc1` [GLYBURIDE], the Activity entry in data set [1] and in data set [2] was “inhibitor [+]” in each case.
